According to patent publication US20110028401A1, “CRIPTO BLOCKING MOLECULES AND THERAPEUTIC USES THEREOF” (CONSIGLIO NAZIONALE DELLE RICERCHE, priority 2009, published 2011):

Key:
Parkinsonian rats = assay: Tumor formation after ESC transplantation into striatum of 6-OHDA lesioned rats; assay type: in vivo, rat
Description: Thirty-seven adult male Sprague Dawley rats (250-350 g; from ARC, Australia) were housed and treated according to the guidelines of the Australian and Howard Florey Institute animal ethics committee (07-030). Animals received unilateral stereotaxic injections of 6-OHDA into the substantia nigra pars compacta (SNpc) to create a complete lesion of the midbrain DA neurons, as previously described^29. Lesioned animals were selected for transplantation based on their response to amphetamine induced rotational behaviour as previously described^29. Animals making greater than 6 rotations/min (lesion greater than 80%) were selected for grafting.
Two days prior to grafting animals began cyclosporine-A immune suppression (10 mg/kg). Fourteen days post-lesioning selected animals (determined by behavioural rotations) were again anesthetized and stereotaxically injected with 1 μl of cell suspension at each of the 4 sites as previously described^29. Stereotaxic coordinates of 1st & 2nd Injection (from bregma): anterior 0.2 mm, lateral 3.0 mm, ventral 4.5 and 5.0 mm; 3rd & 4th Injection, anterior 1.0 mm, lateral 2.5 mm, ventral 4.5 and 5.0 mm; incisor bar 0 mm^57). ESCs were differentiated as outlined in FIG. 7a. In brief, ESC colonies were dissected away from the stromal feeder layer and dissociated using collagenase/dispase with agitation (700 μg/ml, Roche, for 20 min, 80 rpm). Cells were subsequently resuspended at a density of 3,000 cells/μl ready for grafting. Five rats received Sham injections (4 μl N2 media, 1 μl/site), 16 rats received a total of 12,000 ESCs (4×1 μl grafts) pre-treated with the Control peptide (of which 9 of these animals also received infusion of the Control peptide) and a further 16 rats received grafts pretreated with the Cripto blocking peptide (9 animals receiving infusion of the Cripto BP).
The peptide infusion was performed by implantation of a cannula into the striatum (Alzet brain infusion kit) connected to a subcutaneously placed osmotic minipump (Alzet) prefilled with either CP or Cripto BP. Implantation was performed at the same time as the cell grafting. Cannula coordinates: anterior 0.5 mm, lateral 1.5 mm, ventral 5.0 mm; incisor bar 0 mm^57. The osmotic pump was capable of continuously delivering the peptide over a 3 weeks period (75 μM, 0.25 μl/hr) upon which time the animals were briefly anaesthetized with isoflurane and the pump removed through a small incision over the scapular region.
Eight weeks post grafting, rats were killed by an overdose of sodium pentobarbital (100 mg kg^−1 i.p.) and intracardially perfused as previously described^29. Brains were removed, post fixed for 1 hour, and then left overnight at 4° C. in 20% sucrose in PBS. The following day, 20 μm-thick coronal sections were cut serially through the striatum (12 series) and 50 μm through the SNpc and mounted directly onto chrome alum [K2Cr(SO4)2.12H2O] gelatinized slides.
One series of slides containing grafted striata was counterstained using 1% Neutral red to visualise the graft/tumor size and the gross morphology of the striatum.
Labeling was visualized by light or fluorescent illumination using an inverted microscope (DMIRB, Leica Microsystems, Wetzelar, Del., http://www.leica-microsystems.com) or upright microscope (Leica DMLB2). Images were acquired on a DC 350 FX camera (Leica). Area of grafts and tumors was calculated using Stereo Investigator software (MicroBrightField, Vt., USA).

Cripto/ALK-4 interaction = target: T1, Cripto/ALK-4 interaction (Mus musculus, UniProt P51865); assay: ELISA-based competition assay of Cripto/ALK-4 interaction; assay type: binding
T1 construct: the displacement of soluble recombinant Cripto from coated ALK-4 by the peptide pools was evaluated
T1 sequence (P51865 18-156 limits assumed): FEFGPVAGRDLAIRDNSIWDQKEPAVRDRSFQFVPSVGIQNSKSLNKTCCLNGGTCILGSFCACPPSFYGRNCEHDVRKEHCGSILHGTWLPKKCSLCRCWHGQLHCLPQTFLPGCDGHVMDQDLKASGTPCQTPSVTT
Protocol: To improve the overall solubility of the resulting mixtures, D-Glutamic (D-Glu), corresponding to building block 4 (Table S1) was initially chosen as the common, N-terminal residue. The total complexity of the library was therefore of 30^2=900 different peptides. In the first step of, the deconvolution process, the peptide pools were tested with a molar excess of 30000-fold (calculated for each single peptide) over Cripto (8.6×10^−10 M; FIG. 2. S1). Once identified an active pool(s), a dose-dependent inhibition using 200-, 500-, 1000-, 5000-, 12500 and 30000 fold excess was performed to confirm the inhibitory property (FIG. 3. S2). The first active pool selected was that labelled as 4-23-X (X indicated random positions), where “23” identified the amino acid L-Cysteine(S-benzyl) [L-Cys(Bzl)] (FIG. 3. S2). […] To finally investigate the N-terminal position, where D-Glu was initially arbitrarily placed, 30 single peptides labelled as B-23-23 were synthesized and submitted to the final screening (FIG. 5. S4 (a)). […]
The screening was performed by an ELISA (Enzime-Linked Immunosorbent Assay) assay. […] Finally, the plate was developed with o-phenylendiammine peroxidase substrate (Sigma-Aldrich) and the absorbance was read at 490 nm on a microplate reader (Biorad Benchmark). […]

## C[S+]([O-])CCC(N)C(=O)N[C@@H](CSCc1ccccc1)C(=O)N[C@@H](CSCc1ccccc1)C(=O)N[C@@H](CCCCNC(=O)[C@H](CSCc1ccccc1)NC(=O)[C@H](CSCc1ccccc1)NC(=O)[C@@H](N)CC[S+](C)[O-])C(=O)N[C@@H](CCCCNC(=O)[C@H](CCCCNC(=O)[C@H](CSCc1ccccc1)NC(=O)[C@H](CSCc1ccccc1)NC(=O)[C@@H](N)CC[S+](C)[O-])NC(=O)[C@H](CSCc1ccccc1)NC(=O)[C@H](CSCc1ccccc1)NC(=O)[C@@H](N)CC[S+](C)[O-])C(=O)NCC(=O)O (some centres unmarked) [Cripto BP]
Parkinsonian rats; ESCs pre-treated with peptide + peptide infusion
  tumor volume: 0.79 um^3×10^10
Parkinsonian rats; ESCs pre-treated with peptide, no infusion, 8 weeks
  tumor formation (rats with tumors): 42%
Parkinsonian rats; ESCs pre-treated with peptide, no infusion, Mean±SEM
  tumor volume: 1.09 um^3×10^10
Parkinsonian rats; pre-treated ESCs + peptide infusion (75 μM, 0.25 μl/hr, 3 weeks)
  further reduction of tumor incidence by continual infusion into the striatum: 9%
Parkinsonian rats; range over pre-treatment without and with infusion
  animals with grafts without proliferating or undifferentiated cells: 58-67%
Parkinsonian rats; rat, in vivo
  reduction of tumor formation compared to control peptide: more than 50%
Cripto/ALK-4 interaction; 30 single peptides B-23-23, 500- to 4000-fold excess, confirmed with HPLC purified molecule
  inhibitory activity in final library screening: optimal inhibitory activity
Cripto/ALK-4 interaction; estimated, ELISA competition, FIG. 1b, read-out: IC50 for blocking the interaction of Cripto and ALK-4
  IC50: 400 nM
